Values quoted from earlier work in patent US20250057162A1, “FUNGICIDAL COMPOSITIONS” (SYNGENTA CROP PROTECTION AG, priority 2021, published 2025).

System: Mycosphaerella graminicola (Septoria tritici)

Question: Which “control of wheat leaf blotch disease (in words)” value does the source give for `COc1ccnc(C(=O)N[C@@H](C)C(=O)O[C@@H](C)C(c2ccc(F)cc2)c2ccc(F)cc2)c1OC(C)=O` [Florylpicoxamid, (1S)-2,2-bis(4-fluorophenyl)-1-methylethyl N-{[3-(acetyloxy)-4-methoxy-2-pyridyl]carbonyl}-L-alaninate] here?
Answer: particularly effective
